Results as given in patent US10710994B2, “Oxadiazole transient receptor potential channel inhibitors” (Genentech, Inc., priority 2018, dated 2020).
Read-outs that look alike come from different tables or passages of the source.

Target: human TRPA1 channel (Homo sapiens (Human), UniProt O75762)
Test: hTRPA1 CHO Ca2+ FLIPR Tetra assay: block of cinnamaldehyde induced calcium influx
Assay type: cell-based
Settings: CHO cells expressing TRPA1, Hill coefficient fixed to 1.5
In short: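 TRPA1-expressing CHO cells loaded with calcium indicator dye (1 h 37° C, then 15 min room temperature) in HBSS/20 mM HEPES pH 7.4/0.02% BSA. IC50 from fits with fixed Hill coefficient.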

[1] = read-out: hTRPA1 IC50 10 min, 10 minutes incubation with compound before cinnamaldehyde (about EC80)
[2] = read-out: hTRPA1 IC50 90 min, 90 minutes incubation with compound before cinnamaldehyde (about EC80)
[3] = hTRPA1 IC50 10 min, 10 minutes incubation with compound before cinnamaldehyde (about EC80)
[4] = hTRPA1 IC50 90 min, 90 minutes incubation with compound before cinnamaldehyde (about EC80)

human TRPA1 channel, sequence (O75762 whole entry): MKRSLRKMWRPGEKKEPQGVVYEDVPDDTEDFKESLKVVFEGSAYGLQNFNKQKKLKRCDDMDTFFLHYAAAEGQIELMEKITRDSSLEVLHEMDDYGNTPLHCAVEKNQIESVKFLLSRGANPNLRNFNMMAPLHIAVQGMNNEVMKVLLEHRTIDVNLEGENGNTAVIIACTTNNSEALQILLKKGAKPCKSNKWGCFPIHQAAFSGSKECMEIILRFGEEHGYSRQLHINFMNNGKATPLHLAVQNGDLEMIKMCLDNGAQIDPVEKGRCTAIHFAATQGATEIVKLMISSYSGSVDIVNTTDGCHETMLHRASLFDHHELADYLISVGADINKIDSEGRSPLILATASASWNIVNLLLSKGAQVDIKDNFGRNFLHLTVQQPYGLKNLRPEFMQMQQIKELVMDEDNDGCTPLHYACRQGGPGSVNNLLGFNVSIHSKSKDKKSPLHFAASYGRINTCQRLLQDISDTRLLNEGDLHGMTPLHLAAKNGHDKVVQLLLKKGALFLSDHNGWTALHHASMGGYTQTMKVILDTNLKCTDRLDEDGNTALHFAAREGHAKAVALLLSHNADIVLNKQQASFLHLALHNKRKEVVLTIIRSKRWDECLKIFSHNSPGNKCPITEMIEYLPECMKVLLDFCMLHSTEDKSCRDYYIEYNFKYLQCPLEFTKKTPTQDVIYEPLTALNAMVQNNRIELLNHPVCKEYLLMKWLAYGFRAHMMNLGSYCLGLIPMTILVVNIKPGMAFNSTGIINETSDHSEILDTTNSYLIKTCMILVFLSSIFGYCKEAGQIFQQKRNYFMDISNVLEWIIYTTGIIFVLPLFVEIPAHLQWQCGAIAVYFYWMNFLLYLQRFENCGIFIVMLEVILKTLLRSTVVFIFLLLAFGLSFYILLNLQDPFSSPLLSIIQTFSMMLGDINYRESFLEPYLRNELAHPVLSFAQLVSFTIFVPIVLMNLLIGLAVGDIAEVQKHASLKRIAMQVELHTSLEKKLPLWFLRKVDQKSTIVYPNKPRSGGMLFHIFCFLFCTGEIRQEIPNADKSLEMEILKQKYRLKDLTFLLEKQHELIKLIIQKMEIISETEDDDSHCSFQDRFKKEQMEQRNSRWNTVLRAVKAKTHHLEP

Cc1ccnc2ncn(Cc3nc([C@@H]4CO[C@@H](c5ccc(Cl)cc5)C4)no3)c(=O)c12 [Example 58, 3-((3-((3R,5R)-5-(4-chlorophenyl)tetrahydro-furan-3-yl)-1,2,4-oxadiazol-5-yl)methyl)-5-methylpyrido[2,3-d] pyrimidin-4(3H)-one]
IC50 [1]: 69 nM | IC50 [2]: 52 nM

Cn1cnc2ncn(Cc3nc([C@@H]4CO[C@@H](c5ccc(Cl)cc5)C4)no3)c(=S)c21 [Example 59, 1-((3-((3R,5R)-5-(4-chlorophenyl)tetrahydro-furan-3-yl)-1,2,4-oxadiazol-5-yl)methyl)-7-methyl-1,7-dihydro-6H-purine-6-thione]
IC50 [1]: 4.16 nM | IC50 [2]: 3 nM

Nc1ccc2c(=O)n(Cc3nc([C@@H]4CO[C@@H](c5ccc(F)cc5)C4)no3)cnc2n1 [Example 60, 7-amino-3-((3-((3R,5R)-5-(4-fluorophenyl)tetrahydrofuran-3-yl)-1,2,4-oxadiazol-5-yl)methyl)pyrido[2,3-d] pyrimidin-4(3H)-one]
IC50 [1]: 15.6 nM | IC50 [2]: 12 nM

Cn1nnc2ccn(Cc3nc([C@@H]4CO[C@@H](c5ccc(Cl)cc5)C4)no3)c(=O)c21 [Example 61, 5-((3-((3R,5R)-5-(4-chlorophenyl)tetrahydro-furan-3-yl)-1,2,4-oxadiazol-5-yl)methyl)-3-methyl-3,5-dihydro-4H-[1,2,3]triazolo[4,5-c]pyridin-4-one]
IC50 [1]: 4.65 nM | IC50 [2]: 2.1 nM

Nc1nc2ncccc2c(=O)n1Cc1nc([C@@H]2CO[C@@H](c3ccc(Cl)cc3)C2)no1 [Example 62, 2-amino-3-((3-((3R,5R)-5-(4-chlorophenyl)tetrahydrofuran-3-yl)-1,2,4-oxadiazol-5-yl)methyl)pyrido[2,3-d] pyrimidin-4(3H)-one]
IC50 [1]: 8.29 nM | IC50 [2]: 2.7 nM

Cc1cc(=O)nc2ccn(Cc3nc([C@@H]4CO[C@@H](c5ccc(Cl)cc5)C4)no3)c(=O)n12 [Example 63]
IC50 [1]: 9.26 nM | IC50 [2]: 2.8 nM

Cc1ncn2ncn(Cc3nc([C@@H]4CO[C@@H](c5ccc(Cl)cc5)C4)no3)c(=O)c12 [Example 64, 3-((3-((3R,5R)-5-(4-chlorophenyl)tetrahydro-furan-3-yl)-1,2,4-oxadiazol-5-yl)methyl)-5-methylimidazo[1,5-f] [1,2,4]triazin-4(3H)-one]
IC50 [1]: 20.6 nM | IC50 [2]: 15 nM

COc1ccc([C@H]2C[C@H](c3noc(Cn4cnc5ncn(C)c5c4=O)n3)CO2)cc1 [Example 65, 1-((3-((3R,5R)-5-(4-methoxyphenyl)tetrahydrofuran-3-yl)-1,2,4-oxadiazol-5-yl)methyl)-7-methyl-1,7-dihydro-6H-purin-6-one]
IC50 [3]: 137 nM | IC50 [4]: 67 nM

Cc1cnn2ncn(Cc3nc([C@@H]4CO[C@@H](c5ccc(F)cc5)C4)no3)c(=O)c12 [Example 66, 3-((3-((3R,5R)-5-(4-fluorophenyl)tetrahydro-furan-3-yl)-1,2,4-oxadiazol-5-yl)methyl)-5-methylpyrazolo[5,1-f] [1,2,4]triazin-4(3H)-one]
IC50 [1]: 8.47 nM | IC50 [2]: 1.6 nM

Cc1cncc2ncn(Cc3nc([C@@H]4CO[C@@H](c5ccc(F)cc5)C4)no3)c(=O)c12 [Example 67, 3-((3-((3R,5R)-5-(4-fluorophenyl)tetrahydro-furan-3-yl)-1,2,4-oxadiazol-5-yl)methyl)-5-methylpyrido[3,4-d] pyrimidin-4(3H)-one]
IC50 [1]: 10.7 nM | IC50 [2]: 1.2 nM

Cn1cnc2ncn(Cc3nc([C@@H]4CO[C@@H](c5ccc(C6CC6)cc5)C4)no3)c(=O)c21 [Example 68, 1-((3-((3R,5R)-5-(4-cyclopropylphenyl)tetrahydrofuran-3-yl)-1,2,4-oxadiazol-5-yl)methyl)-7-methyl-1,7-dihydro-6H-purin-6-one]
IC50 [1]: 46 nM | IC50 [2]: 27 nM

Cn1cnc2ncn(Cc3nc([C@@H]4CO[C@@H](c5ccc(F)cc5)C4)no3)c2c1=O [Example 69, 7-((3-((3R,5R)-5-(4-fluorophenyl)tetrahydro-furan-3-yl)-1,2,4-oxadiazol-5-yl)methyl)-1-methyl-1,7-dihydro-6H-purin-6-one]
IC50 [1]: 59.5 nM | IC50 [2]: 34 nM

Cn1cnc2nc(N)n(Cc3nc([C@@H]4CO[C@@H](c5ccc(Cl)cc5)C4)no3)c(=O)c21 [Example 71, 2-amino-1-((3-((3R,5R)-5-(4-chlorophenyl)tetrahydrofuran-3-yl)-1,2,4-oxadiazol-5-yl)methyl)-7-methyl-1,7-dihydro-6H-purin-6-one]
IC50 [1]: 18.4 nM | IC50 [2]: 1.5 nM

O=c1c2c(ncn1Cc1nc([C@@H]3CO[C@@H](c4ccc(Cl)cc4)C3)no1)CNCC2 [Example 73, 3-((3-((3R,5R)-5-(4-chlorophenyl)tetrahydro-furan-3-yl)-1,2,4-oxadiazol-5-yl)methyl)-5,6,7,8-tetrahydropyrido [3,4-d]pyrimidin-4(3H)-one]
IC50 [2]: 22 nM

Cn1cnc2nc(N)n(Cc3nc([C@@H]4CO[C@@H](c5ccc(S(F)(F)(F)(F)F)cc5)C4)no3)c(=O)c21 [Example 74, 2-amino-7-methyl-1-((3-((3R,5R)-5-(4-(pentafluoro-16-sulfanyl)phenyl)tetrahydrofuran-3-yl)-1,2,4-oxadiazol-5-yl)methyl)-1,7-dihydro-6H-purin-6-one]
IC50 [1]: 170 nM | IC50 [2]: 120 nM

Cc1ncn2ncn(Cc3nc([C@@H]4CO[C@@H](c5ccc(F)cc5)C4)no3)c(=O)c12 [Example 75, 3-((3-((3R,5R)-5-(4-fluorophenyl)tetrahydro-furan-3-yl)-1,2,4-oxadiazol-5-yl)methyl)-5-methylimidazo[5,1-f][1,2,4]triazin-4(3H)-one]
IC50 [2]: 25 nM

Cn1c(C(F)F)nc2ncn(Cc3nc([C@@H]4CO[C@@H](c5ccc(Cl)cc5)C4)no3)c(=O)c21 [Example 76, 1-((3-((3R,5R)-5-(4-chlorophenyl)tetrahydro-furan-3-yl)-1,2,4-oxadiazol-5-yl)methyl)-8-(difluoro-methyl)-7-methyl-1,7-dihydro-6H-purin-6-one]
IC50 [2]: 11 nM

NC(=O)c1ccc2c(=O)n(Cc3nc([C@@H]4CO[C@@H](c5ccc(Cl)cc5)C4)no3)cnc2n1 [Example 77, 3-((3-((3R,5R)-5-(4-chlorophenyl)tetrahydro-furan-3-yl)-1,2,4-oxadiazol-5-yl)methyl)-4-oxo-3,4-dihydropyrido[2,3-d] pyrimidine-7-carboxamide]
IC50 [2]: 66 nM

Cc1nc(NC2CCN(C)CC2)n2ncn(Cc3nc([C@@H]4CO[C@@H](c5ccc(Cl)cc5)C4)no3)c(=O)c12 [Example 78, 3-((3-((3R,5R)-5-(4-chlorophenyl)tetrahydro-furan-3-yl)-1,2,4-oxadiazol-5-yl)methyl)-5-methyl-7-((1-methylpiperidin-4-yl)amino)imidazo[5,1-f] [1,2,4]triazin-4(3H)-one]
IC50 [2]: 150 nM

Cc1nc(NC2CNC2)n2ncn(Cc3nc([C@@H]4CO[C@@H](c5ccc(Cl)cc5)C4)no3)c(=O)c12 [Example 79]
IC50 [2]: 92 nM

Cc1nc(N2CC(CN)C2)n2ncn(Cc3nc([C@@H]4CO[C@@H](c5ccc(Cl)cc5)C4)no3)c(=O)c12 [Example 80, 7-(3-(aminomethyl)azetidin-1-yl)-3-((3-((3R,5R)-5-(4-chlorophenyl)tetrahydro-furan-3-yl)-1,2,4-oxadiazol-5-yl)methyl)-5-methylimidazo[5,1-f] [1,2,4]triazin-4(3H)-one]
IC50 [2]: 180 nM

Cc1nc(N)n2ncn(Cc3nc([C@@H]4CO[C@@H](c5ccc(F)cc5)C4)no3)c(=O)c12 [Example 81, 7-amino-3-((3-((3R,5R)-5-(4-fluorophenyl)tetrahydro-furan-3-yl)-1,2,4-oxadiazol-5-yl)methyl)-5-methyl-imidazo[5,1-f][1,2,4]triazin-4(3H)-one]
IC50 [2]: 75 nM

O=c1c2cccc(=O)n2cnn1Cc1nc([C@@H]2CO[C@@H](c3ccc(Cl)cc3)C2)no1 [Example 82, 2-((3-((3R,5R)-5-(4-chlorophenyl)tetrahydro-furan-3-yl)-1,2,4-oxadiazol-5-yl)methyl)-2H-pyrido [1,2-d][1,2,4]triazine-1,6-dione]
IC50 [2]: 2.4 nM

Cn1cnc2ncn(Cc3nc([C@@H]4CO[C@@H](c5cc(F)c(Cl)c(F)c5)C4)no3)c(=O)c21 [Example 83, 1-((3-((3R,5R)-5-(4-chloro-3,5-difluorophenyl)tetrahydrofuran-3-yl)-1,2,4-oxadiazol-5-yl)methyl)-7-methyl-1,7-dihydro-6H-purin-6-one]
IC50 [3]: 47.4 nM | IC50 [4]: 13 nM

Cc1ncn2nc(N)n(Cc3nc([C@@H]4CO[C@@H](c5ccc(Cl)cc5)C4)no3)c(=O)c12 [Example 84, 2-amino-3-((3-((3R,5R)-5-(4-chlorophenyl)tetra-hydrofuran-3-yl)-1,2,4-oxadiazol-5-yl)methyl)-5-methylimidazo[5,1-f] [1,2,4]triazin-4(3H)-one]
IC50 [1]: 142 nM | IC50 [2]: 4.6 nM

Cc1ncn2nc(N)n(Cc3nc([C@@H]4CO[C@@H](c5ccc(F)cc5)C4)no3)c(=O)c12 [Example 85, 2-amino-3-((3-((3R,5R)-5-(4-fluorophenyl)tetra-hydrofuran-3-yl)-1,2,4-oxadiazol-5-yl)methyl)-5-methylimidazo[5,1-f] [1,2,4]triazin-4(3H)-one]
IC50 [1]: 15.5 nM | IC50 [2]: 6 nM

Cn1cnc2ncn(Cc3nc([C@@H]4CO[C@@H](c5ccc(S(F)(F)(F)(F)F)cc5)C4)no3)c(=O)c21 [Example 86, 7-methyl-1-((3-((3R,5R)-5-(4-(pentafluoro-l6-sulfanyl)phenyl)tetrahydro-furan-3-yl)-1,2,4-oxadiazol-5-yl)methyl)-1,7-dihydro-6H-purin-6-one]
IC50 [1]: 1560 nM | IC50 [2]: 930 nM
